Assay: gradient 5% acetonitrile 3 min, to 50% in 2 min, to 85% in 15 min, held 3 min, 100 µL/min
Conditions: column: Zorbax Extend-C18 2.1 x 50 mm; eluents: water / acetonitrile, 0.1% formic acid
Method in brief: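 In both positive and negative ionization mode, a quadrupole time-of-flight mass spectrometer coupled to HPLC analyzed pure standards run in mixtures of ~100 molecules. The Zorbax Extend-C18 column (2.1 × 50 mm, 1.8 μm) was operated at 100 μL/min with water and acetonitrile, each containing 0.1% formic acid. The dead volume was 40 μL and the dwell volume 900 μL. Retention time came from adduct peaks that were computationally picked and individually inspected by hand.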

SMILES	RP-LC retention time [s]
CCCn1cc(S(=O)(=O)Nc2cccc(F)c2C)c2cccnc21	861
CC(C)(C)N(C(=O)c1ccccc1[N+](=O)[O-])C(=O)N1CCCCC1	828
CCc1nc2cc(-c3noc(-c4ccc(F)c(F)c4)n3)ccc2o1	1200
Cc1ccc2oc(N3CCCN(C(=O)c4ccc(-c5noc(C6CC6)n5)cc4)CC3)nc2n1	648
COc1ccc(Cl)cc1NC(=O)CSc1ccc(N2CCCC(C(=O)NC3CC3)C2)nn1 (centres undefined)	753
COc1cccc(CN2CCC3(CC2)C(OC)C(=O)N3c2cccc(F)c2)n1 (centres undefined)	703
O=C(CCC1CCCN(c2cc(NC3CC3)ncn2)C1)NCCc1ccncc1 (centres undefined)	564
Cc1nc(-c2noc(-c3ccccc3)n2)cn1CC(=O)NCc1ccc(F)cc1F	838
CCOc1ccccc1NC(=O)N1CCc2nc(-c3ccc(OC)cc3)ncc2C1	1000
CCCC(=O)Nc1ccc(-n2cnc(C(=O)NC3CCCC3)c2)nc1	726
CCOc1ccc(-c2ccc(=O)n(Cc3nc(-c4ccccc4C)no3)n2)cc1	1040
O=C(Cn1c(CO)cnc1SCc1ccc(Cl)c(Cl)c1)NC1CC1	585
COc1cccc(Cn2c(C)c(CNCc3ccc(C)o3)c(C(=O)O)c2C)c1	715
Cc1oc(-c2ccc(Cl)cc2)nc1CN1CCC(C(=O)NCc2ccccn2)CC1	584
Cc1nc(-c2cc(S(=O)(=O)Nc3ccc(Cl)cc3F)c(C)s2)cs1	1030
COc1cccc(-c2nc(C3CCN(C(=O)C4COc5ccccc5O4)CC3)no2)c1 (centres undefined)	1060
COc1ccccc1NC(=O)N1CCC2(C1)C(=O)N(C)c1ccccc12 (centres undefined)	818
COc1ccc(-n2c(=O)n(C)c(=O)c3cc(C(=O)Nc4cc(F)ccc4C)cnc32)cc1	893
CCCn1cc(CCNC(=O)c2c(F)cccc2Cl)c2cccnc21	764
Cc1ccc(S(=O)(=O)N2CC(=O)N(c3ccccc3F)C(C)(C(=O)NCCC(C)C)C2)cc1 (centres undefined)	1020

SMILES	RP-LC retention time [s]
CC(C)(C)c1ccc(O)c(NC(=O)c2cn(-c3ccc(S(=O)(=O)N4CCCC4)cc3)cn2)c1	1020
CCOc1ccc(S(=O)(=O)N2CCC(C(=O)N3CCc4ccccc4C3)CC2)cc1	985
Cc1ccc(-n2ncc3c(=O)n(Cc4nc(-c5ccccc5)no4)cnc32)cc1	1080
CC1CCCN(S(=O)(=O)c2ccc(-n3cnc(C(=O)N4CCCC4)c3)nc2)C1 (centres undefined)	817
CN1CCc2nnc(C3CCN(C(=O)Nc4ccc(Cl)cc4F)C3)n2CC1 (centres undefined)	573
Cc1ccsc1C(=O)NC1(c2nc(-c3cccnc3)no2)CCCCC1	937
CCCNc1cc(N2CCCC(CCC(=O)N(CC)CC)C2)ncn1 (centres undefined)	658
Cc1nc(-c2ccc(C(=O)N3CCC(C(=O)N4CCc5ccccc54)CC3)cc2)no1	816
N#CC1CC(c2ccccc2)Nc2cc(Cl)ccc2N1 (centres undefined)	912
Cc1cc(C)c(NC(=O)Cn2c(=O)cc(-c3nc(C4CC4)no3)c3ccccc32)c(C)c1	999
CCN(C(=O)Cn1nc2cc(C)nc(Nc3ccc(C)c(C)c3)n2c1=O)c1ccccc1	1230
CCc1noc(-c2cccnc2N2CCCN(Cc3ccccc3F)CC2)n1	662
Cc1c(Cl)cccc1-n1ccnc(NC(=O)Nc2ccc(F)cc2)c1=O	1000
CCCCN(C)CCCNC(=O)C1CCN(S(=O)(=O)CCC)CC1	968
Cc1ccccc1NC(=O)N(C)CCc1noc(COc2ccccc2F)n1	926
CCCn1cc(S(=O)(=O)Nc2cc(Cl)ccc2OC)c2cccnc21	995
Cc1cnc(C(=O)NCC23CCC=C2N(C)C(=O)CC3)cn1 (centres undefined)	666
CCc1nc2cc3c(cc2n1CC(=O)Nc1ccc(C)cc1)OCCO3	678
O=C(CSC1CCc2ccccc2NC1=O)Nc1ccccc1 (centres undefined)	777
O=C(Nc1ccccc1C(F)(F)F)N1CCN(c2ccc(=O)n(-c3ccc(F)cc3)n2)CC1	794

SMILES	RP-LC retention time [s]
COc1ccc(-c2noc(CN3N=NC4C(=O)N(c5cccc(Cl)c5)C(=O)C43)n2)c(OC)c1 (centres undefined)	912
COc1ccc(-c2nnc3ccc(SCC(=O)Nc4cc(C)on4)nn23)cc1OC	606
O=C(CSCc1ccccc1)NCC1CCN(c2ncccn2)CC1	703
Cc1ccc2nc(CN3CCN(C(=O)NCc4ccc(F)cc4)CC3)oc2c1	690
CCCNC(=O)CN1C(=O)CCn2nc(-c3cn(C)c4ccccc34)cc21	730
COC(=O)c1cc(OCC(=O)NC2CCCCC2)c2cc(OC)c(OC)cc2n1	725
O=C(CSc1ccc(F)cc1)N1CCC(COCc2ccccc2)CC1	1030
COc1cccc(N2CC(C(=O)Nc3nnc(SCc4ccccc4)s3)CC2=O)c1 (centres undefined)	820
O=C(Cc1csc(NC(=O)C2CC2)n1)Nc1ccc(Cl)c(Cl)c1	827
CCN1c2ccccc2C(=O)NC12CCN(C(=O)NC1CCCCC1)CC2	771
Cc1noc(C2(NC(=O)c3sccc3C)CCCCC2)n1	882
Cc1noc2ncnc(N3CCCC(C(=O)N4CCN(Cc5ccc6c(c5)OCO6)CC4)C3)c12 (centres undefined)	611
COc1ccccc1CCC(=O)N1CCCn2nc(-c3cccs3)cc2C1	702
CCCn1cc(-c2ccncc2)cc1C(=O)NCc1ccccc1C	689
COc1cc(OC)c(NC(=O)Cn2nc3cc(C)nc(-c4ccc(F)cc4)n3c2=O)cc1Cl	899
O=C(CCc1ccc2cc[nH]c2c1)NCc1ccc(F)cc1	808
CCn1cc(-c2nc(-c3cccc(Br)c3)no2)c(=O)c2cc(F)c(N3CCOCC3)cc21	1050
Cc1cccc(Cn2c(=O)n(CCNC(=O)CC(C)(C)C)c3ncccc32)c1	864
Cc1sc(-c2cc(C(F)(F)F)on2)cc1S(=O)(=O)N1CCN(c2ccc(Cl)cc2)CC1	1400

The remaining lines, values ahead:

RP-LC retention time [s]	SMILES
680	O=S(=O)(c1cccc(Cl)c1)N1CCC2(CCN(c3cccnc3)C2)C1 (centres undefined)
608	Cc1nnc2n1CCN(C(=O)c1cc(-c3ccccc3)n[nH]1)C2
721	CCc1ccccc1NS(=O)(=O)c1cc(-c2[nH]ncc2C(=O)N2CCOCC2)oc1C
808	Cc1ccccc1Nc1c(-c2cc(Br)ccc2F)nc2ccccn12
1280	c1ccc(-c2noc(-c3cccnc3N3CCN(c4ccccc4)CC3)n2)cc1
797	COCCCNC(=O)N1CCCC1c1ccccc1Cl (centres undefined)
633	CCc1ccc2[nH]c3c(c(=O)c2c1)CN(CC(=O)NCc1ccccc1Cl)CC3
583	COc1cccc(CN2CCC3(CC2)NCCc2c3[nH]c3ccccc23)c1
980	O=C(CN1C(=O)CC(c2cccs2)=Nc2ccccc21)Nc1ccccc1Cl
704	Cn1c(N2CCC(C(=O)N3CCN(c4ccc(F)cc4)CC3)CC2)cc(=O)n(C)c1=O
950	CCN(CC)S(=O)(=O)c1cccc(-c2nnc(-c3ccc(OC)c(OC)c3)o2)c1
891	COc1cccc(CNC(=O)C2CCN(C(=O)c3cc4oc5ccccc5c4n3C)CC2)c1OC
766	Cc1ccccc1S(=O)(=O)N1CCn2c(nn(CC3CC3)c2=O)C1
639	CCCN(CC1CCOC1)C(=O)Nc1ccc(Cl)cc1C (centres undefined)
689	CCOc1ccc(N2CCn3c2nc2c3c(=O)n(CC(=O)O)c(=O)n2C)cc1
836	CC(C)Cc1nc(CNC(=O)C2CCCCC2)no1
722	CCCS(=O)(=O)N1CC(n2cc(C(=O)NCC3CC3)nn2)C1
1070	O=C(Nc1ccccc1Br)N1CCCC1c1nc(-c2ccc(F)cc2F)no1 (centres undefined)
790	CCc1ccc(-c2cc3c(=O)n(CC(O)c4ccccc4OC)ccn3n2)cc1 (centres undefined)
618	COc1cn(CC(=O)NCc2ccc3c(c2)OCO3)c(CSc2ccccc2)cc1=O
1100	CCCN1C(=O)COc2ccc(-c3noc(COc4ccc(OC)cc4)n3)cc21
1130	COc1ccccc1N1CCN(c2cc(SCC(=O)Nc3cc(F)ccc3F)ncn2)CC1
632	Cc1ccc(S(=O)(=O)N2CCN(CCc3cn(C)c4ncccc34)CC2)cc1
802	Cc1ccc(NC(=O)Cn2c(C)cc(-c3nnc(C)o3)c2C)c(C)c1
695	CC(=O)c1ccc(N2CCN(C(=O)c3ccc(-n4cccn4)nn3)CC2)cc1
766	COC(=O)Nc1nc(CC(=O)Nc2ccc(OC(F)(F)F)cc2)cs1
824	CCCN1C(=O)c2c(C(=O)NCCC(C)C)ncn2CC1(C)C(=O)NCc1ccc(F)cc1 (centres undefined)
829	Cc1nnc(-c2ccc3ccn(CC(=O)Nc4ccc(F)c(F)c4)c3c2)o1
817	O=C(NC1CCCCC1)C1CC(=O)N(CCc2c[nH]c3ccc(Cl)cc23)C1 (centres undefined)
1080	O=c1c2sccc2n(Cc2nc(-c3cccc(Br)c3)no2)c(=O)n1-c1ccc(F)cc1
